Legend:
[1] = target: T1, Amine oxidase [flavin-containing] B (Rattus norvegicus, UniProt P19643); assay: Inhibition of rat brain MAO-B using kynuramine substrate […] by spectrophotometric assay
T1 sequence (P19643 whole entry): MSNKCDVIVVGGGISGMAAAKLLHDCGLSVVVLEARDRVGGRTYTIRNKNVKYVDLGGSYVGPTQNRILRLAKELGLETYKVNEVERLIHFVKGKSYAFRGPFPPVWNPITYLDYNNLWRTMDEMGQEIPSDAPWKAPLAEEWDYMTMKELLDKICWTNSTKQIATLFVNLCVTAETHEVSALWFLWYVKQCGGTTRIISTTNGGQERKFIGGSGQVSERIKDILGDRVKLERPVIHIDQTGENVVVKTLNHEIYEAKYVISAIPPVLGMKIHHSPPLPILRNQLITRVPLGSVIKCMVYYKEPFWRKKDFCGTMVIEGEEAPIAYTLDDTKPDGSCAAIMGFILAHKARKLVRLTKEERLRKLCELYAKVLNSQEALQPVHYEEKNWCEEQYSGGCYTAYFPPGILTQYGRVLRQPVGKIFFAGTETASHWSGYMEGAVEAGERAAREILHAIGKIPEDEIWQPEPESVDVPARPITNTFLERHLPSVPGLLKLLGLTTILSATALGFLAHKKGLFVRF

[2] = target: Acetylcholinesterase (Electrophorus electricus, UniProt O42275); assay: Inhibition of electric eel AChE by spectrophotometric Ellman's method
Acetylcholinesterase (Electrophorus electricus, UniProt O42275), sequence (O42275 whole entry): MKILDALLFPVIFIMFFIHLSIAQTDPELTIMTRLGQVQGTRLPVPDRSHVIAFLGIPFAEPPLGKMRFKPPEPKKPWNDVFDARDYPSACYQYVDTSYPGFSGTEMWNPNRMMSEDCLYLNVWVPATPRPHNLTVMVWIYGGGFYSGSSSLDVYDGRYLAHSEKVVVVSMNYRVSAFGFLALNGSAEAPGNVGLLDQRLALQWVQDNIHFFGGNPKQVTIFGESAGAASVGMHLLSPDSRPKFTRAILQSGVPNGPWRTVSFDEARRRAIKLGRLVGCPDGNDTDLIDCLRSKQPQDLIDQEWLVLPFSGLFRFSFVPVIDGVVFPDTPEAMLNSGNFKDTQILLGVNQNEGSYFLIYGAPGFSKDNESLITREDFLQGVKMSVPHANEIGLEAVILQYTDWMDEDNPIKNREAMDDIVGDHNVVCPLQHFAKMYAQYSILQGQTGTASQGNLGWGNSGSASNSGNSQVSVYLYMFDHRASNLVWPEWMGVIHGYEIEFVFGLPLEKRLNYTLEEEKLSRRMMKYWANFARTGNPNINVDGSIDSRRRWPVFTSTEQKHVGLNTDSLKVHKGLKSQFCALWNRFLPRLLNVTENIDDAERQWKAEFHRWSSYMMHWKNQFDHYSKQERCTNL

[3] = target: T2, Amine oxidase [flavin-containing] A (Rattus norvegicus, UniProt P21396); assay: Inhibition of rat brain MAO-A using kynuramine substrate […] at 10 uM by spectrophotometric assay
T2 sequence (P21396 whole entry): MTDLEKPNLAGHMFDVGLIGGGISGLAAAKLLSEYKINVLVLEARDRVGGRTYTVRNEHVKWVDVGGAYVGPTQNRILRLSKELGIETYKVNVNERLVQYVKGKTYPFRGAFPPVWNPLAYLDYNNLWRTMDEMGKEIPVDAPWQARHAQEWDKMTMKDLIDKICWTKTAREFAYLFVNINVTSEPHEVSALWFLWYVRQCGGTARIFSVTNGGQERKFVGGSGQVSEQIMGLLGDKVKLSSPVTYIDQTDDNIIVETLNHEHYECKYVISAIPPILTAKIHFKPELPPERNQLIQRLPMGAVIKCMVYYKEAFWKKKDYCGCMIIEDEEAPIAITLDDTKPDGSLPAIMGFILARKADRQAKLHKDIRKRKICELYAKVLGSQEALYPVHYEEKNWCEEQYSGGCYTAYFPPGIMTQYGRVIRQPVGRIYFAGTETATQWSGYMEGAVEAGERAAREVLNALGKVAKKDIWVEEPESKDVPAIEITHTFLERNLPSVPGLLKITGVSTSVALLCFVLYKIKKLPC

[4] = target: Cholinesterase (Equus caballus, UniProt P81908); assay: Inhibition of equine serum BuChE by spectrophotometric Ellman's method
Cholinesterase, sequence (P81908 whole entry): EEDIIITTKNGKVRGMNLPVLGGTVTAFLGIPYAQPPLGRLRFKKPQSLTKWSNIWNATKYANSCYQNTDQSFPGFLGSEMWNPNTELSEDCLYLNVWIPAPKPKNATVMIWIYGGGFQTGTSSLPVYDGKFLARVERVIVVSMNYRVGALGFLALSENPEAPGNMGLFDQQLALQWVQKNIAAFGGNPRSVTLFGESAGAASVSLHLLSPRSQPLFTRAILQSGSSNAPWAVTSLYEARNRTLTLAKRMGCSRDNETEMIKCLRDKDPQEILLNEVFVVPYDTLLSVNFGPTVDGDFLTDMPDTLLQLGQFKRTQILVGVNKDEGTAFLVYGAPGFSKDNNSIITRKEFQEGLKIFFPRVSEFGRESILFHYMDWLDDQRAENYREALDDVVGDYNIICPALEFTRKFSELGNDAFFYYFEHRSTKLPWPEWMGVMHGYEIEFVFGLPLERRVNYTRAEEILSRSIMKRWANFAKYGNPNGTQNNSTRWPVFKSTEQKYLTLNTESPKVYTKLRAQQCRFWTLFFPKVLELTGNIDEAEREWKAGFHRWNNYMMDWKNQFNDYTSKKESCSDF

[5] = target: Acetylcholinesterase (Homo sapiens, UniProt P22303); assay: Inhibition of human recombinant AChE by spectrophotometric Ellman's method
Acetylcholinesterase (Homo sapiens, UniProt P22303), sequence (P22303 whole entry): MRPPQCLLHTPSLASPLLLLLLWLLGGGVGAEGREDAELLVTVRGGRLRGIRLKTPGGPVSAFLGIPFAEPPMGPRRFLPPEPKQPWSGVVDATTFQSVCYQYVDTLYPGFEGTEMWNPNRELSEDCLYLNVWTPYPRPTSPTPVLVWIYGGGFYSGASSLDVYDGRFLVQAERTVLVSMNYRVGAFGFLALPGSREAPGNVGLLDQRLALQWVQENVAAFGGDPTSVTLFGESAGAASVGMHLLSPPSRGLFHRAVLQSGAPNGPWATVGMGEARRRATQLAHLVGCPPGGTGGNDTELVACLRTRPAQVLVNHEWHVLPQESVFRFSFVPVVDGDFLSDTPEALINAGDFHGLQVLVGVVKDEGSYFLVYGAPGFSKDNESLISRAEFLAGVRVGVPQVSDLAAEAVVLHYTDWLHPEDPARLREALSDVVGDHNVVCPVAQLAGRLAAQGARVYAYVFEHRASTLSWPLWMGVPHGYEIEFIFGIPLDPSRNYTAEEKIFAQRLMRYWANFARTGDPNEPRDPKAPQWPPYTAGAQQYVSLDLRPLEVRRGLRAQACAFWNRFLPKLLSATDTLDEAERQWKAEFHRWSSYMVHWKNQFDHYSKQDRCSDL

[6] = target: T3, Amine oxidase [flavin-containing] B (Homo sapiens, UniProt P27338)
T3 sequence (P27338 whole entry): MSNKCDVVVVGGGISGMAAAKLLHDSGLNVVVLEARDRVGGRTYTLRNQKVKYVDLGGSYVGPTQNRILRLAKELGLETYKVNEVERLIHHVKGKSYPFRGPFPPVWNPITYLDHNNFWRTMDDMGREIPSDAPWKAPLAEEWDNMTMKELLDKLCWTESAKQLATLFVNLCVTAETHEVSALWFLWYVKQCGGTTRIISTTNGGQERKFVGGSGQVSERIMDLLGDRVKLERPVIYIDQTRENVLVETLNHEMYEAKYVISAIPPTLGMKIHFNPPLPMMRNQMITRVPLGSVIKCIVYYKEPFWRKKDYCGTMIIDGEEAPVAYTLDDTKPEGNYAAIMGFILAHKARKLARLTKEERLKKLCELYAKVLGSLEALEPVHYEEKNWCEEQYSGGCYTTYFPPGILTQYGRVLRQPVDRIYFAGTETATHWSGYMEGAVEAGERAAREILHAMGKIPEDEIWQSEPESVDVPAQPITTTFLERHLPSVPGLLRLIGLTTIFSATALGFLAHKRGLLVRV
Description: Inhibition of human recombinant MAO-B using kynuramine substrate by spectrophotometric assay

[7] = target: Cholinesterase (Equus caballus) (UniProt P81908); assay: Inhibition of equine serum BuChE at 10 uM by spectrophotometric Ellman's method
Cholinesterase (Equus caballus), sequence (P81908 whole entry): as the sequence (P81908 whole entry) above

[8] = target: T4, Amine oxidase [flavin-containing] A (Homo sapiens, UniProt P21397); assay: Inhibition of human recombinant MAO-A using kynuramine substrate at 10 uM by spectrophotometric assay
T4 sequence (P21397 whole entry): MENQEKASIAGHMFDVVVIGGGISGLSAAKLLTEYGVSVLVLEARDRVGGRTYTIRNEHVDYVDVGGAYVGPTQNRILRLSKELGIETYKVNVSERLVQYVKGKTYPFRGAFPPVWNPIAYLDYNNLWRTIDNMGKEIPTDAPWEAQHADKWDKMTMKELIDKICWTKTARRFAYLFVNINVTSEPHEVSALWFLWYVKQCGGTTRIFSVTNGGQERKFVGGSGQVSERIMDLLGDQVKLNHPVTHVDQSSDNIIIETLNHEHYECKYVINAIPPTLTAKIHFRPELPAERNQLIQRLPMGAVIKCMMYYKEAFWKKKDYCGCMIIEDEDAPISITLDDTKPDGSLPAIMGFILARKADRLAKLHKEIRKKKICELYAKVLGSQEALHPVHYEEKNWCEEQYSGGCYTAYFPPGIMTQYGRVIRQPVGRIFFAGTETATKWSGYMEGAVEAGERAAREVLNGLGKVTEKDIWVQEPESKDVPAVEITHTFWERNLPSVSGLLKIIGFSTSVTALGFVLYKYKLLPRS

[9] = target: T1, Amine oxidase [flavin-containing] B; assay: Inhibition of rat brain MAO-B using kynuramine substrate […] at 10 uM by spectrophotometric assay
[10] = target: T2, Amine oxidase [flavin-containing] A; assay: Inhibition of rat brain MAO-A using kynuramine substrate […] by spectrophotometric assay
[11] = target: T4, Amine oxidase [flavin-containing] A; assay: Inhibition of human recombinant MAO-A using kynuramine substrate by spectrophotometric assay

Compound | IC50 [1] | IC50 [2] | inhibition at 10 µM [3] | IC50 [4] | IC50 [5] | IC50 [6] | inhibition [7] | inhibition at 10 µM [8] | inhibition at 10 µM [9] | IC50 [10] | IC50 [11]
O=c1cc(CO)c2ccc(OCc3ccc(CNCc4ccccc4)cc3)cc2o1 | 0.53 µM | 0.44 µM | 19% | 0.57 µM | – | – | – | – | – | – | –
Cc1cc2ccc(OCc3ccc(CN(C)Cc4ccccc4)cc3)cc2oc1=O | 2.4 µM | 0.26 µM | 0% | 1.1 µM | 0.5 µM | – | – | – | – | – | –
CN(C)Cc1ccc(COc2ccc3ccc(=O)oc3c2)cc1 | 3.7 µM | 7.1 µM | 17% | 0.24 µM | – | – | – | – | – | – | –
Cc1cc(=O)oc2cc(OCc3ccc(CN(C)Cc4ccc(C#N)cc4)cc3)ccc12 | 0.41 µM | 3.3 µM | 10% | – | 8.5 µM | 0.039 µM | 29% | 39% | – | – | –
CCN(CC)Cc1cccc(COc2ccc3ccc(=O)oc3c2)c1 | – | 1.7 µM | 43% | 6.8 µM | – | – | – | – | 35% | – | –
CN(CCc1ccc(COc2ccc3ccc(=O)oc3c2)cc1)Cc1ccccc1 | – | 0.85 µM | – | 0.52 µM | – | – | – | – | – | – | –
Cc1c(C)c2ccc(OCCCCCN(C)Cc3cccc(C#N)c3)cc2oc1=O | 2.5 µM | 2.3 µM | – | 4.1 µM | – | – | – | – | – | 5.3 µM | –
CN(C)Cc1cccc(COc2ccc3ccc(=O)oc3c2)c1 | 3.2 µM | – | – | 5.3 µM | – | – | – | – | – | 10 µM | –
Cc1cc2ccc(OCc3ccc(CN(C)Cc4cccc(Cl)c4)cc3)cc2oc1=O | 4.5 µM | 1.3 µM | 0% | – | – | – | 29% | – | – | – | –
Cc1c(C)c2ccc(OCCCN(C)Cc3ccccc3)cc2oc1=O | 0.33 µM | 1.3 µM | 35% | 7.8 µM | 1 µM | 0.134 µM | – | 17% | – | – | –
Cc1c(C)c2ccc(OCCCCCN(C)Cc3cccc(Cl)c3)cc2oc1=O | 8.9 µM | 0.29 µM | 42% | 2.6 µM | – | – | – | – | – | – | –
CCN(CCCOc1ccc2c(C)c(C)c(=O)oc2c1)Cc1ccccc1 | 0.98 µM | 0.36 µM | – | 4 µM | – | – | – | – | – | 7.4 µM | –
Cc1cc2ccc(OCc3ccc(CN(C)Cc4ccc(C#N)cc4)cc3)cc2oc1=O | 1.7 µM | 7 µM | 15% | – | – | 0.017 µM | 16% | 11% | – | – | –
CN(Cc1ccc(C#N)cc1)Cc1ccc(COc2ccc3ccc(=O)oc3c2)cc1 | 0.27 µM | 5.6 µM | 6% | 4.4 µM | 6 µM | 0.045 µM | – | 0% | – | – | –
CN(Cc1cccc(C#N)c1)Cc1cccc(COc2ccc3ccc(=O)oc3c2)c1 | 3.7 µM | 4.2 µM | 2% | 2.8 µM | – | – | – | – | – | – | –
Cc1c(C)c2ccc(OCCCCCN(C)Cc3ccccc3)cc2oc1=O | 0.98 µM | 0.55 µM | – | 2.8 µM | – | – | – | – | – | 4.2 µM | –
CCN(CC)Cc1ccc(COc2ccc3ccc(=O)oc3c2)cc1 | – | 2.9 µM | 9% | 3.4 µM | – | – | – | – | 44% | – | –
Cc1c(C)c2ccc(OCCCCN(C)Cc3ccccc3)cc2oc1=O | 1.1 µM | 0.49 µM | – | 3.7 µM | 0.79 µM | 0.096 µM | – | – | – | 6.6 µM | 0.48 µM

Compound | IC50 [1] | IC50 [2] | inhibition at 10 µM [3] | IC50 [4] | IC50 [5] | IC50 [6] | inhibition [7] | inhibition at 10 µM [8] | inhibition at 10 µM [9] | IC50 [10] | IC50 [11]
CN(Cc1ccccc1)Cc1ccc(COc2ccc3cc(C#N)c(=O)oc3c2)cc1 | – | 0.2 µM | 0% | 5.5 µM | – | – | – | – | 41% | – | –
CN(Cc1cccc(Cl)c1)Cc1cccc(COc2ccc3ccc(=O)oc3c2)c1 | 3.4 µM | 5.7 µM | 17% | 0.31 µM | – | – | – | – | – | – | –
COc1cccc(CN(C)Cc2cccc(COc3ccc4ccc(=O)oc4c3)c2)c1 | 2.5 µM | 6.6 µM | 14% | 0.88 µM | – | – | – | – | – | – | –
Cc1cc(=O)oc2cc(OCc3ccc(CN(C)Cc4ccccc4)cc3)ccc12 | 4.1 µM | 0.18 µM | 10% | 1 µM | 0.91 µM | – | – | – | – | – | –
Cc1cc(=O)oc2cc(OCc3ccc(CN(C)Cc4cccc(Cl)c4)cc3)ccc12 | 5 µM | 0.12 µM | 0% | – | 1 µM | – | 47% | – | – | – | –
CCN(CCCCCOc1ccc2c(C)c(C)c(=O)oc2c1)Cc1ccccc1 | 7.8 µM | 0.75 µM | – | 0.94 µM | – | – | – | – | – | 9.5 µM | –
O=c1ccc2ccc(OCc3ccc(CCNCc4ccccc4)cc3)cc2o1 | – | 4.7 µM | – | 0.64 µM | – | – | – | – | – | – | –
Cc1c(C)c2ccc(OCc3ccc(CN(C)Cc4cccc(Cl)c4)cc3)cc2oc1=O | 3.4 µM | 0.66 µM | 7% | – | – | – | 48% | – | – | – | –
Cc1c(C)c2ccc(OCc3ccc(CN(C)Cc4ccc(C#N)cc4)cc3)cc2oc1=O | – | 4.2 µM | – | – | 3.9 µM | – | 18% | – | – | – | –
CN(Cc1ccc(C#N)cc1)Cc1ccc(COc2ccc3cc(C#N)c(=O)oc3c2)cc1 | 0.99 µM | – | 0% | – | – | – | 14% | – | – | – | –
CN(Cc1ccccc1)Cc1ccc(COc2ccc3ccc(=O)oc3c2)cc1 | – | 0.75 µM | – | 11 µM | 0.95 µM | – | – | – | – | – | –
CN(Cc1ccc(COc2ccc3ccc(=O)oc3c2)cc1)Cc1cccc(C#N)c1 | 2.8 µM | 7.4 µM | 5% | 4.1 µM | – | – | – | – | – | – | –
CN(Cc1ccc(C#N)cc1)Cc1ccc(COc2ccc3c(CO)cc(=O)oc3c2)cc1 | 0.035 µM | 6.3 µM | 0% | – | – | 0.0057 µM | 23% | – | – | – | 4.48 µM
COc1cccc(CN(C)Cc2ccc(COc3ccc4ccc(=O)oc4c3)cc2)c1 | 2.9 µM | 4.6 µM | 20% | 1.4 µM | – | – | – | – | – | – | –
Cc1c(C)c2ccc(OCCCCCN(C)Cc3ccc(C#N)cc3)cc2oc1=O | 3.3 µM | 2.8 µM | 48% | 4.3 µM | – | – | – | – | – | – | –
CN(Cc1ccc(COc2ccc3ccc(=O)oc3c2)cc1)Cc1cccc(Cl)c1 | 2.7 µM | 0.59 µM | 12% | 1.2 µM | – | – | – | – | – | – | –
CN(Cc1ccccc1)Cc1cccc(COc2ccc3ccc(=O)oc3c2)c1 | – | 2.3 µM | – | 1 µM | – | – | – | – | – | – | –

From ChEMBL document CHEMBL3585305, “Structure-Based Design and Optimization of Multitarget-Directed 2H-Chromen-2-one Derivatives as Potent Inhibitors of Monoamine Oxidase B and Cholinesterases” (J Med Chem, 2015)
